Measured values from patent US7396529B2, “Compositions and methods for regulating receptor clustering” (Mount Sinai Hospital, priority 2001, dated 2008).
Entries after “also recorded” stand apart in the source; their conditions may differ.

Assays:
[1] = system: protein tyrosine phosphorylation in T cells; experiment: TCR signaling: phosphotyrosine Western blot after anti-CD3ε bead stimulation; type: cell-based, mouse; details: for Protein phosphorylation induced by anti-CD3ε antibody coated beads: Mgat5+/+ T cells, disaccharide 1/3 serial dilution from 2.4 mM, 1 min stimulation
Galectins = details: range; 8; read-out: Dissociation constant for galectin binding; cited from earlier work
[2] = system: TCR clustering in wild type (Mgat5+/+) T cells; experiment: TCR clustering at anti-CD3ε antibody-coated beads after disaccharide pre-incubation; type: cell-based, mouse; details: for Enhanced TCR clustering observed (cells with clustering / cells examined): Mgat5+/+ T cells pre-incubated 20 min with 2 mM disaccharide, then anti-CD3ε antibody-coated beads 10 min, stained for TCR; for Effect on TCR clustering at the bead interface: wild type ex vivo T cells, 20 min disaccharide pre-incubation, 10 min anti-CD3ε bead stimulation
Protocol: TCR clustering: Six-micron polystyrene beads (Polysciences) in PBS were coated with hamster anti-mouse CD3ε antibody (Clone 2C11; Cederlane) at 2 μg/ml antibody followed by coating with 200 μg/ml bovine serum albumin (BSA). To measure TCR clustering, 5×10^4 T cells were incubated with 2.5×10^5 anti-CD3ε antibody-coated beads in 100 μl RPMI 1640+10% FCS at 37° C. for 10 minutes placed on poly-L-lysine coated cover slips. The cells were fixed with 10% formalin, stained with 2 μg/ml fluorescein isothiocyanate (FITC) labeled anti-TCRα/β antibody (Pharmigen), solubilized with 0.2% Triton X-100, labelled with rhodamine-phalloidin and Hoechst, and then visualized by deconvolution microscopy. […] To measure TCR internalization, purified splenic T cells stimulated with either 0.1 μg/ml^−1 anti-CD3 antibody or with 10 ng/ml PMA for varying lengths of time were harvested and stained with FITC-anti-TCRα/β. PMA concentrations were not limiting as 10, 50 and 100 ng/ml produced similar internalization and cell activation results. To measure actin reorganization, purified splenic T cells, stimulated with 0.1 μg/ml^−1 anti-CD3 for varying lengths of time, were fixed with 4% paraformaldehyde for 10 minutes, washed with PBS and stained with rhodamine-phalloidin and mean fluorescence intensity (MFI) was determined by FACS.

T cell proliferation = details: depletion of Mgat5 modified glycans; cited from earlier work
EAE = details: injected into mice; cited from earlier work

Molecule	Protein phosphorylation induced by anti-CD3ε antibody coated beads [1]	Kd (Galectins)	Enhanced TCR clustering observed (cells with clustering / cells examined) [2]	Effect on TCR clustering at the bead interface [2]	also measured
N[C@H]1C(O)O[C@H](CO)[C@@H](O[C@@H]2O[C@H](CO)[C@H](O)[C@H](O)[C@H]2O)[C@@H]1O (stereo partly shown) [Lactosamine]	enhanced protein phosphorylation	~100 µM			
OC[C@H]1O[C@@](CO)(O[C@H]2O[C@H](CO)[C@@H](O)[C@H](O)[C@H]2O)[C@@H](O)[C@@H]1O [sucrose]	no effect		1/10	not altered	
O[C@H]1[C@H]2[C@H](O)CCCN2C[C@H]1O [swainsonine]					Effect on antigen-dependent T cell proliferation (T cell proliferation): potentiates antigen-dependent T cell proliferation
galectin-1: exogenously added beta-galactoside-binding lectin					Effect on pathology of EAE (EAE): suppresses the pathology of EAE
OC[C@H]1O[C@H](O[C@H]2[C@H](O)[C@@H](O)[C@H](O)O[C@@H]2CO)[C@H](O)[C@@H](O)[C@@H]1O [maltose]	no effect				
OC[C@H]1O[C@@H](O[C@H]2[C@H](O)[C@@H](O)C(O)O[C@@H]2CO)[C@H](O)[C@@H](O)[C@H]1O (stereo partly shown) [lactose]	enhanced protein phosphorylation	~100 µM	9/10	increased TCR clustering at the bead interface; also recorded: produced a phenocopy of Mgat5^−/− TCR clustering	Signaling in Mgat5−/− T cells ([1]; Mgat5−/− T cells, data not shown): did not enhance signaling
